The record followed here is ChEMBL document CHEMBL4382193, “Discovery of Potent Irreversible Pan-Fibroblast Growth Factor Receptor (FGFR) Inhibitors” (J Med Chem, 2018).

A value given as a limit tells only on which side of the number the result lay.

The subject of one series is NCI-H1581. The experiment in a line: cells. The conditions noted are these: Homo sapiens, NCI-H1581, 72 h.
Series [1] addresses Fibroblast growth factor receptor 1 (Homo sapiens, UniProt P11362).
Description: Inhibition of recombinant FGFR1 (unknown origin) using poly (Glu,Tyr) 4:1 as substrate after 60 mins by ELISA
Series [2] has as its target Fibroblast growth factor receptor 4 (Homo sapiens, UniProt P22455). Nature of the series: Inhibition of recombinant FGFR4 (unknown origin) using poly (Glu,Tyr) 4:1 as substrate after 60 mins by ELISA. A general note: An ELISA detects its analyte on a solid surface through an enzyme-linked reagent.
Series [3] relates to BaF3. Nature of the series: cells. The conditions noted are these: Mus musculus, BaF3, 72 h.
Description: Antiproliferative activity against mouse BAF3 cells expressing TEL-fused KDR kinase after 72 hrs by CCK8 or MTT assay
Series [4] deals with BaF3. The experiment in a line: cells. To be noted: Mus musculus, BaF3, 72 h. This is another data set of the same source.
Description: Antiproliferative activity against mouse BAF3 cells expressing TEL-fused FGFR4 kinase after 72 hrs by CCK8 or MTT assay
The subject of the next series is RT-112. Nature of the series: cells. To be noted: Homo sapiens, RT-112, 72 h.
The subject of the next series is Huh-7. The experiment in a line: cells. To be noted: Homo sapiens, Huh-7, 72 h.
Another series deals with OPM-2. Nature of the series: cells. To be noted: Homo sapiens, OPM-2, 72 h.
A short description of series [5]: Cmax in Sprague-Dawley rat at 10 mg/kg, po administered via gavage by HPLC-MS/MS analysis. Further details: dose 10 mg/kg, route oral. Type of series: ADME, organism-based. The conditions noted are these: in vivo.
A short description of series [6]: Tmax in Sprague-Dawley rat at 10 mg/kg, po administered via gavage by HPLC-MS/MS analysis. Type of series: ADME, organism-based. The conditions noted are these: in vivo.
The nature of series [7]: AUC in Sprague-Dawley rat at 10 mg/kg, po administered via gavage by HPLC-MS/MS analysis. Type of series: ADME, organism-based. The conditions noted are these: in vivo.
Series [8] can be described thus: Terminal half life in Sprague-Dawley rat at 10 mg/kg, po administered via gavage by HPLC-MS/MS analysis. Type of series: ADME, organism-based. To be noted: in vivo, read-out: beta t1/2 (converted).

Sequence of Fibroblast growth factor receptor 4 (P22455 whole entry): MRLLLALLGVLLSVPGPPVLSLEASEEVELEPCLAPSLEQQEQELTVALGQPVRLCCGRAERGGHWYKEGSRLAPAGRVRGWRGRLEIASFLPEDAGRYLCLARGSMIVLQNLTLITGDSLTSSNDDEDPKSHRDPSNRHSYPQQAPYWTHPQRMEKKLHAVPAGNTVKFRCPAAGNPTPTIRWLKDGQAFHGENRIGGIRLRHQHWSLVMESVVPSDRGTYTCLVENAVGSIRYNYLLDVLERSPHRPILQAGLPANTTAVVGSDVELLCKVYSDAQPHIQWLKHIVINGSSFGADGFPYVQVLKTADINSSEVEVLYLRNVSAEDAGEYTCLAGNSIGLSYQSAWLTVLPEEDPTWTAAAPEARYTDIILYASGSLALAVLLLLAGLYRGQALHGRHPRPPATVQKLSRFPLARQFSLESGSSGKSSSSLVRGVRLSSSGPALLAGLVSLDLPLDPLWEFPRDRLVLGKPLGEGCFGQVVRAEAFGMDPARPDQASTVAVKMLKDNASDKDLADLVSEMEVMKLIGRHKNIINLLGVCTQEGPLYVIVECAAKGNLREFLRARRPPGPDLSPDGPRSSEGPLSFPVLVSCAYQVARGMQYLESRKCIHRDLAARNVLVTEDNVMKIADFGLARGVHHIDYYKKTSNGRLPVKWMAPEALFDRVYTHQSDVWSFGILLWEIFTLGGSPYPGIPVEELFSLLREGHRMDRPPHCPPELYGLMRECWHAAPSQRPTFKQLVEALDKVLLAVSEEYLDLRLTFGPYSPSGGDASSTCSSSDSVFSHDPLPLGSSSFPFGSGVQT
Sequence of Fibroblast growth factor receptor 1 (P11362 whole entry): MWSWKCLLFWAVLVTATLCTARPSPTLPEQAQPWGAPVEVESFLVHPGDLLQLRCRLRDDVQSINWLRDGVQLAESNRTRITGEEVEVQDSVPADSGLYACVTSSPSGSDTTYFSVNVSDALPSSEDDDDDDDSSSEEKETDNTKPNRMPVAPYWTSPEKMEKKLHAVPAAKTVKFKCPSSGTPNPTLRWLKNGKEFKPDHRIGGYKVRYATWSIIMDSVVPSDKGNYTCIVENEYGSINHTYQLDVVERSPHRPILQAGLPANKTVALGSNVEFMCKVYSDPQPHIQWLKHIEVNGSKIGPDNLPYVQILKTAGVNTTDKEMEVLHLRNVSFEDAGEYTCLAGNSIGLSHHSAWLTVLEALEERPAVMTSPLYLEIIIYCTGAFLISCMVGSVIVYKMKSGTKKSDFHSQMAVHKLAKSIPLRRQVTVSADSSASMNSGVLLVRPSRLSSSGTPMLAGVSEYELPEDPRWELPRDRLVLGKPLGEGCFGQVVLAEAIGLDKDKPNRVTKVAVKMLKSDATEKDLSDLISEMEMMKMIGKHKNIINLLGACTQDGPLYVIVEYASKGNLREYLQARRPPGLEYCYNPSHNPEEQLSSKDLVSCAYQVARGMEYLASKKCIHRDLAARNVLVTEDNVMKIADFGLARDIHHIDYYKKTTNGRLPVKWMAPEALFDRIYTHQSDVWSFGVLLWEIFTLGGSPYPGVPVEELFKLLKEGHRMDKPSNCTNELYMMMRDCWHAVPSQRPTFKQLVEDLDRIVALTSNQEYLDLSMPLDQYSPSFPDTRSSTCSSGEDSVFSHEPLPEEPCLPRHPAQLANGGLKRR
Description for Huh-7: Antiproliferative activity against FGF19/FGFR4 expressing human HuH7 cells after 72 hrs by CCK8 or MTT assay
Description for NCI-H1581: Antiproliferative activity against FGFR1 amplified human NCI-H1581 cells after 72 hrs by CCK8 or MTT assay
Description for OPM-2: Antiproliferative activity against FGFR3 amplified human OPM2 cells after 72 hrs by CCK8 or MTT assay
Description for RT-112: Antiproliferative activity against FGFR3 amplified human RT112 cells after 72 hrs by CCK8 or MTT assay

Broadly, the IC50 is the midpoint of a concentration-inhibition curve. With `C=CC(=O)N1CC(n2cc(-c3cc4cc(OC)ccc4s3)c3c(N)ncnc32)C1`, the IC50 in the series on NCI-H1581 stood at 38.1 nM. Still for that read-out and setting: under `C#CC(=O)N1CCC(n2cc(-c3cc4cc(C)cc(OC)c4s3)c3c(N)ncnc32)C1` (stereo unspecified) stands more than 1000 nM; under `C=CC(=O)N1CCC(n2cc(-c3cc4cc(C)cc(OC)c4s3)c3c(N)nc(N)nc32)C1` (stereo unspecified), 25.7 nM.

As to `C=CC(=O)NCCn1cc(-c2cc3cc(C)cc(OC)c3s2)c2c(N)ncnc21`, 255 nM corresponded to half-maximal inhibition in the series with NCI-H1581 (IC50).

As to `COc1cc(C)cc2cc(-c3cn(C4CCN(C(=O)/C=C/CN(C)C)C4)c4ncnc(N)c34)sc12` (stereo unspecified), the IC50 with NCI-H1581 was less than 0.3 nM.

As for `C=CC(=O)N1CC(n2cc(-c3cc4c(OC)ccc(OC)c4s3)c3c(N)ncnc32)C1`, half-maximal inhibition with NCI-H1581 (IC50) required 15.9 nM. `C=CC(=O)N1CCC(n2cc(-c3cc4cc(C)cc(OC)c4s3)c3c(NC)ncnc32)C1` (stereo unspecified): the 50% inhibitory concentration (IC50) in series [1] and in series [2] was more than 100 nM in each case. Take `C=CC(=O)N1CCC(n2cc(-c3cc4cc(C)cc(OC)c4s3)c3c(N)ncnc32)C1` (stereo unspecified): the values for the IC50 (in series [1]; in the series on NCI-H1581; in series [2]) were less than 0.3 nM, less than 0.3 nM and 6.2 nM, respectively. With `C=CC(=O)N1CCC(n2cc(-c3cc4cc(C)cc(OC)c4s3)c3c(N)nc(C)nc32)C1` (stereo unspecified), in the series with NCI-H1581, the IC50 was 254 nM. Still for that read-out and setting: under `C=CC(=O)N1CCC(n2cc(-c3cc4cc(OC)cc(OC)c4s3)c3c(N)ncnc32)C1` (stereo unspecified) stands less than 0.3 nM. On the same count and under the same terms, under `C=CC(=O)N1CCC(n2cc(-c3cc4cccc(OC)c4s3)c3c(N)ncnc32)C1` (stereo unspecified) stands less than 0.3 nM.

Regarding `CCN1CCN(c2ccc(Nc3cc(N(C)C(=O)Nc4c(Cl)c(OC)cc(OC)c4Cl)ncn3)cc2)CC1` [INFIGRATINIB], the IC50 in the series with BaF3 [3] is 3340 nM; with BaF3 [4], 133 nM; in the series on RT-112, less than 0.5 nM; with Huh-7, 57.2 nM.

In the series on NCI-H1581, `C=CC(=O)N1CC(n2cc(-c3cc4cc(C)cc(OC)c4s3)c3c(N)nc(Cl)nc32)C1` returned a half-maximal inhibitory concentration (IC50) of 207 nM.

The compound `C=CC(=O)N1CC(n2cc(-c3cc4cccc(OC)c4s3)c3c(N)ncnc32)C1` came in with a half-inhibitory concentration (IC50) with NCI-H1581 of less than 0.3 nM.

In the series on NCI-H1581, `C=CC(=O)N1CCCC(n2cc(-c3cc4cc(C)cc(OC)c4s3)c3c(N)ncnc32)C1` (stereo unspecified) displayed a half-maximal inhibitory concentration (IC50) of 227 nM. On to `C=CS(=O)(=O)N1CC(n2cc(-c3cc4cc(C)cc(OC)c4s3)c3c(N)ncnc32)C1`, for which the IC50 in [1] is less than 0.3 nM; in the series with NCI-H1581 it was more than 1000 nM. As to `COc1cc(CCc2cc(NC(=O)c3ccc(N4C[C@@H](C)N[C@@H](C)C4)cc3)n[nH]2)cc(OC)c1` [FEXAGRATINIB], the IC50 worked out at 544 nM in the series with BaF3 [3]; 83.6 nM with OPM-2; 339 nM with BaF3 [4]; 36.4 nM with RT-112; 284 nM with Huh-7. Take `C=CC(=O)N1CC[C@@H](n2cc(-c3cc4cc(C)cc(OC)c4s3)c3c(N)ncnc32)C1`: the 50% inhibitory concentration (IC50) in series [1] was 0.6 nM; in the series with NCI-H1581 it was 21.7 nM; in series [2], 82.7 nM. Consider `C=CC(=O)N1CCC(n2cc(-c3cc4cc(C)cc(OC)c4s3)c3c(N)ncnc32)CC1`, for which the IC50 in the series on NCI-H1581 is less than 0.3 nM. In turn, `C=CC(=O)N1CC(n2cc(-c3cc4ccccc4s3)c3c(N)ncnc32)C1` returned a concentration for half-maximal inhibition (IC50) in the series with NCI-H1581 of 170 nM. In the series on NCI-H1581, `C=CC(=O)N1CCCC1Cn1cc(-c2cc3cc(C)cc(OC)c3s2)c2c(N)ncnc21` (stereo unspecified) returned a half-maximal inhibitory concentration (IC50) of less than 0.3 nM. Usually Cmax stands for the peak of the concentration-time curve. As usually defined, the Tmax is the time at which the peak concentration occurs. As usually defined, the AUC is concentration integrated over time. As for `C=CC(=O)N1CC(n2cc(-c3cc4cc(C)cc(OC)c4s3)c3c(N)ncnc32)C1`, in series [5], the Cmax was found to be 12 ng/mL. For the same compound, in [6], the time to peak (Tmax) worked out at 1.67 h. The compound also gave an exposure (AUC) in [7] of 46.4 ng·h/mL. In addition, in the series on NCI-H1581, the concentration for half-maximal inhibition (IC50) was less than 0.3 nM. Also, in series [8], the half-life was 2.11 h. As for `C=CC(=O)N1CCC(n2cc(-c3cc(OC)cc(OC)c3)c3c(N)ncnc32)C1` (stereo unspecified), the half-inhibitory concentration (IC50) with NCI-H1581 is 90.2 nM.

Take `C=CC(=O)N1CC(n2cc(-c3cc4cc(C)cc(OC)c4o3)c3c(N)ncnc32)C1`: the IC50 in series [2] was more than 1000 nM. The compound `CCC(=O)N1CCC(n2cc(-c3cc4cc(C)cc(OC)c4s3)c3c(N)ncnc32)C1` (stereo unspecified) displayed a concentration for half-maximal inhibition (IC50) in the series with NCI-H1581 of 49.7 nM. As for `C=CC(=O)NC1CCC(n2cc(-c3cc4cc(C)cc(OC)c4s3)c3c(N)ncnc32)CC1` (stereo unspecified), the concentration for half-maximal inhibition (IC50) in the series with NCI-H1581 is 67.9 nM. In the series with NCI-H1581, `C=C(CN(C)C)C(=O)N1CCC(n2cc(-c3cc4cc(C)cc(OC)c4s3)c3c(N)ncnc32)C1` (stereo unspecified) displayed an IC50 of less than 0.3 nM. In the series on NCI-H1581, `C=CC(=O)N1CC(n2cc(-c3cc4ccc(OC)cc4s3)c3c(N)ncnc32)C1` returned a concentration for half-maximal inhibition (IC50) of 86.1 nM. The compound `C=CC(=O)N1CCC(n2cc(-c3cc4cccc(C)c4s3)c3c(N)ncnc32)C1` (stereo unspecified) yielded an IC50 in the series on NCI-H1581 of less than 0.3 nM.
